Experimental data taken from US12281122B1, “PI3K inhibitors” (Cogent Biosciences, Inc., priority 2023, dated 2025).

How the values were obtained:
[1] = test system: T47D (PI3Kα-H1047R) cell line; experiment: HTRF phospho-AKT(S473) cell assay in T47D cells; assay type: cell-based, human
Procedure, shortened: (§1)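 Cells plated overnight (T47D in RPMI/10% FBS/0.2 units/mL insulin; SKBR3 in McCoy's 5A/10% FBS), then given 12-point 1:3 compound series (top 5 μM T47D, 10 μM SKBR3; ≤0.5% DMSO) for 2 h at 37° C. SKBR3 stimulated with 70 ng/ml PDGF-BB for final 15 min. Lysate pAKT(S473) by HTRF; IC50 calculated.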

[2] = test system: SKBR3 (PI3Kα-Wild Type) cell line; experiment: HTRF phospho-AKT(S473) cell assay in SKBR3 cells; assay type: cell-based, human
Procedure, shortened: as §1

[3] = Homo sapiens; HTRF phospho-AKT(S473), T47D (PI3Kα-H1047R) cells, 2 hours compound incubation
[4] = Homo sapiens, SK-BR-3; HTRF phospho-AKT(S473), SKBR3 (PI3Kα-Wild Type) cells, 2 hours compound incubation, PDGF-BB stimulated
[5] = Homo sapiens; T47D (PI3Kα-H1047R) cells, HTRF phospho-AKT(S473), 2 hours compound incubation
[6] = Homo sapiens, SK-BR-3; SKBR3 (PI3Kα-Wild Type) cells, HTRF phospho-AKT(S473), 2 hours compound incubation, PDGF-BB stimulated

SMILES	IC50 [1, 3]	IC50 [2, 4]	IC50 [1, 5]	IC50 [2, 6]
Cc1cc([C@@H](C)Nc2ccc(Cl)nc2C(=O)NS(C)(=O)=O)c2nc(N3Cc4cn(-c5ccc(C#N)cc5)nc4C3)n(C)c(=O)c2c1 [Compound 239, (R)-6-chloro-3-((1-(2-(2-(4-cyanophenyl)-2,6-dihydropyrrolo[3,4-c]pyrazol-5(4H)-yl)-3,6-dimethyl-4-oxo-3,4-dihydroquinazolin-8-yl)ethyl)amino)-N-(methylsulfonyl) picolinamide]	–	–	< 250 nM	1000 to 5000 nM
Cc1cc([C@@H](C)Nc2ccc(Cl)nc2C(=O)NS(C)(=O)=O)c2nc(N3[C@@H]4CC[C@H]3C[C@@H](n3cc(C)cn3)C4)n(C)c(=O)c2c1 [Compound 482, 6-chloro-3-(((R)-1-(3,6-dimethyl-2-((1R,3R,5S)-3-(4-methyl-1H-pyrazol-1-yl)-8-azabicyclo[3.2.1]octan-8-yl)-4-oxo-3,4-dihydroquinazolin-8-yl)ethyl)amino)-N-(methylsulfonyl) picolinamide]	< 250 nM	1000 to 5000 nM	–	–
C[C@@H](Nc1ccc(Cl)nc1C(=O)NS(C)(=O)=O)c1cc(C(F)(F)F)cc2c(=O)n(C)c(N3C[C@@H]4[C@H](C3)[C@H]4c3ccn(C)n3)nc12 [Compound 452, 6-chloro-3-(((R)-1-(3-methyl-2-((1R,5S,6R)-6-(1-methyl-1H-pyrazol-3-yl)-3-azabicyclo[3.1.0]hexan-3-yl)-4-oxo-6-(trifluoromethyl)-3,4-dihydroquinazolin-8-yl)ethyl)amino)-N-(methylsulfonyl) picolinamide]	250 to 500 nM	1000 to 5000 nM	–	–
Cc1cc([C@@H](C)Nc2ccc(Cl)nc2C(=O)NS(C)(=O)=O)c2nc(-c3ccnc(O[C@@H]4CCN(C)CC4(F)F)c3)n(C)c(=O)c2c1 [Compound 809, 6-chloro-3-(((R)-1-(2-(2-(((R)-3,3-difluoro-1-methylpiperidin-4-yl)oxy)pyridin-4-yl)-3,6-dimethyl-4-oxo-3,4-dihydroquinazolin-8-yl)ethyl)amino)-N-(methylsulfonyl) picolinamide]	250 to 500 nM	≥ 5000 nM	–	–
Cc1cc([C@@H](C)Nc2ccc(Cl)nc2C(=O)NS(C)(=O)=O)c2nc(N3C[C@@H]4C[C@]4(c4cnc(C)cn4)C3)n(C)c(=O)c2c1 (relative stereo) [Compound 750, 6-chloro-3-(((R)-1-(3,6-dimethyl-2-((1R*,5R*)-1-(5-methylpyrazin-2-yl)-3-azabicyclo[3.1.0]hexan-3-yl)-4-oxo-3,4-dihydroquinazolin-8-yl)ethyl)amino)-N-(methylsulfonyl) picolinamide]	250 to 500 nM	≥ 5000 nM	–	–
Cc1cc([C@@H](C)Nc2ccc(Cl)nc2C(=O)NS(C)(=O)=O)c2nc(N3C[C@@H]4[C@H](C3)[C@H]4n3ncc(F)c3C)n(C)c(=O)c2c1 [Compound 632, 6-chloro-3-(((R)-1-(2-((1R,5S,6S)-6-(4-fluoro-5-methyl-1H-pyrazol-1-yl)-3-azabicyclo[3.1.0]hexan-3-yl)-3,6-dimethyl-4-oxo-3,4-dihydroquinazolin-8-yl)ethyl)amino)-N-(methylsulfonyl) picolinamide]	250 to 500 nM	1000 to 5000 nM	–	–
Cc1cc([C@@H](C)Nc2ccc(Cl)nc2C(=O)NS(C)(=O)=O)c2nc(N3Cc4cn(-c5ccc(C#N)cn5)nc4C3)n(C)c(=O)c2c1 [Compound 219, (R)-6-chloro-3-((1-(2-(2-(5-cyanopyridin-2-yl)-2,6-dihydropyrrolo[3,4-c]pyrazol-5(4H)-yl)-3,6-dimethyl-4-oxo-3,4-dihydroquinazolin-8-yl)ethyl)amino)-N-(methylsulfonyl) picolinamide]	–	–	< 250 nM	1000 to 5000 nM
Cc1cc([C@@H](C)Nc2ccc(Cl)nc2C(=O)NS(C)(=O)=O)c2nc(N3C[C@@H]4[C@H](C3)[C@H]4c3cc(C)nn3C3CC3)n(C)c(=O)c2c1 [Compound 568, 6-chloro-3-(((R)-1-(2-((1R,5S,6R)-6-(1-cyclopropyl-3-methyl-1H-pyrazol-5-yl)-3-azabicyclo[3.1.0]hexan-3-yl)-3,6-dimethyl-4-oxo-3,4-dihydroquinazolin-8-yl)ethyl)amino)-N-(methylsulfonyl) picolinamide]	250 to 500 nM	1000 to 5000 nM	–	–
Cc1cc([C@@H](C)Nc2ccc(Cl)nc2C(=O)NS(C)(=O)=O)c2nc(N3CCC4(CCN(c5ccn(C)n5)C4)CC3)n(C)c(=O)c2c1 [Compound 359, (R)-6-chloro-3-((1-(3,6-dimethyl-2-(2-(1-methyl-1H-pyrazol-3-yl)-2,8-diazaspiro[4.5]decan-8-yl)-4-oxo-3,4-dihydroquinazolin-8-yl)ethyl)amino)-N-(methylsulfonyl) picolinamide]	–	–	250 to 500 nM	≥ 5000 nM

The remaining lines, values ahead:

IC50 [1, 3]	IC50 [2, 4]	IC50 [1, 5]	IC50 [2, 6]	SMILES
< 250 nM	1000 to 5000 nM	–	–	Cc1cnc(O[C@@H]2CCN(c3nc4c([C@@H](C)Nc5ccc(Cl)nc5C(=O)NS(C)(=O)=O)cc(C)cc4c(=O)n3C)C2)nc1 [Compound 613, 6-chloro-3-(((R)-1-(3,6-dimethyl-2-((R)-3-((5-methylpyrimidin-2-yl)oxy)pyrrolidin-1-yl)-4-oxo-3,4-dihydroquinazolin-8-yl)ethyl)amino)-N-(methylsulfonyl) picolinamide]
250 to 500 nM	1000 to 5000 nM	–	–	COc1ccc(N2CCN(c3nc4c([C@@H](C)Nc5ccc(Cl)nc5C(=O)NS(C)(=O)=O)cc(C)cc4c(=O)n3C)CC2)cn1 [Compound 635, (R)-6-chloro-3-((1-(2-(4-(6-methoxypyridin-3-yl)piperazin-1-yl)-3,6-dimethyl-4-oxo-3,4-dihydroquinazolin-8-yl)ethyl)amino)-N-(methylsulfonyl) picolinamide]
–	–	250 to 500 nM	1000 to 5000 nM	Cc1cc([C@@H](C)Nc2ccc(Cl)nc2C(=O)NS(C)(=O)=O)c2nc(N3CC[C@H](Oc4ccnnc4)C3)n(C)c(=O)c2c1 [Compound 353, 6-chloro-3-(((R)-1-(3,6-dimethyl-4-oxo-2-((S)-3-(pyridazin-4-yloxy)pyrrolidin-1-yl)-3,4-dihydroquinazolin-8-yl)ethyl)amino)-N-(methylsulfonyl) picolinamide]
–	–	< 250 nM	1000 to 5000 nM	COc1ccnn1C1CCN(c2nc3c([C@@H](C)Nc4ccc(Cl)nc4C(=O)NS(C)(=O)=O)cc(C)cc3c(=O)n2C)CC1 [Compound 318, (R)-6-chloro-3-((1-(2-(4-(5-methoxy-1H-pyrazol-1-yl)piperidin-1-yl)-3,6-dimethyl-4-oxo-3,4-dihydroquinazolin-8-yl)ethyl)amino)-N-(methylsulfonyl) picolinamide]
–	–	< 250 nM	1000 to 5000 nM	Cc1cc([C@@H](C)Nc2ccc(Cl)nc2C(=O)NS(C)(=O)=O)c2nc(N3CC[C@@H](Oc4ccc(F)cc4)C3)n(C)c(=O)c2c1 [Compound 203, 6-chloro-3-(((R)-1-(2-((R)-3-(4-fluorophenoxy)pyrrolidin-1-yl)-3,6-dimethyl-4-oxo-3,4-dihydroquinazolin-8-yl)ethyl)amino)-N-(methylsulfonyl) picolinamide]
–	–	< 250 nM	1000 to 5000 nM	Cc1cc([C@@H](C)Nc2ccc(Cl)nc2C(=O)NS(C)(=O)=O)c2nc(N3CCC(c4c(C)cnn4C)CC3)n(C)c(=O)c2c1 [Compound 427, (R)-6-chloro-3-((1-(2-(4-(1,4-dimethyl-1H-pyrazol-5-yl)piperidin-1-yl)-3,6-dimethyl-4-oxo-3,4-dihydroquinazolin-8-yl)ethyl)amino)-N-(methylsulfonyl) picolinamide]
